According to PubChem BioAssay (NCI):
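Five concentrations, 48 hours, 96-well plates. GI50 is the concentration that inhibits growth by half. TGI denotes the concentration required for complete inhibition of growth.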

Experiments:
Test in all cases: DTP human tumour cell line panel, 48 h
IGROV1 ovarian = test system: IGROV1 ovarian
OVCAR-3 ovarian = test system: OVCAR-3 ovarian
CAKI-1 renal = test system: CAKI-1 renal
RXF 393 renal = test system: RXF 393 renal
SR leukemia = test system: SR leukemia
UO-31 renal = test system: UO-31 renal
OVCAR-5 ovarian = test system: OVCAR-5 ovarian
RPMI-8226 leukemia = test system: RPMI-8226 leukemia
MCF7 breast = test system: MCF7 breast
DLD-1 colon = test system: DLD-1 colon
DMS 114 small cell lung = test system: DMS 114 small cell lung
SNB-78 CNS = test system: SNB-78 CNS

SMILES: C[C@]12CC[C@@H]3c4ccc(OCCN5CCCC5)cc4CC[C@H]3[C@@H]1CCC2=O
- TGI (IGROV1 ovarian): 40.7 µM
- TGI (OVCAR-3 ovarian): 68.8 µM
- TGI (CAKI-1 renal): 81.5 µM
- TGI (RXF 393 renal): > 100 µM
- TGI (SR leukemia): > 100 µM
- TGI (UO-31 renal): 61.9 µM
- TGI (OVCAR-5 ovarian): 97.4 µM
- TGI (RPMI-8226 leukemia): > 100 µM
- TGI (MCF7 breast): 48.2 µM

SMILES: O=C(O)c1nccnc1C(=O)O
- TGI (IGROV1 ovarian): > 100 µM
- TGI (CAKI-1 renal): > 100 µM
- TGI (RXF 393 renal): > 100 µM
- TGI (DLD-1 colon): > 100 µM
- TGI (SR leukemia): > 100 µM
- TGI (UO-31 renal): > 100 µM
- TGI (DMS 114 small cell lung): > 100 µM
- TGI (OVCAR-5 ovarian): > 100 µM
- TGI (RPMI-8226 leukemia): > 100 µM

SMILES: Cc1ccc(C2CC(c3cccc(Nc4ccncc4)c3)=NN2c2ccccc2)cc1 (stereo unspecified)
- GI50 (OVCAR-3 ovarian): 1700 nM
- TGI (OVCAR-3 ovarian): 3.13 µM
- GI50 (CAKI-1 renal): 1610 nM
- TGI (CAKI-1 renal): 3.02 µM
- GI50 (RXF 393 renal): 1610 nM
- TGI (RXF 393 renal): 3.02 µM
- GI50 (SR leukemia): 2070 nM
- TGI (SR leukemia): 5.73 µM
- GI50 (UO-31 renal): 1410 nM
- TGI (UO-31 renal): 2.74 µM
- GI50 (OVCAR-5 ovarian): 1680 nM
- TGI (OVCAR-5 ovarian): 3.19 µM

SMILES: C[N+](C)([O-])Cc1cc(-c2ccccc2)ccc1O
- TGI (IGROV1 ovarian): > 100 µM
- TGI (OVCAR-3 ovarian): > 100 µM
- TGI (CAKI-1 renal): > 100 µM
- TGI (RXF 393 renal): > 100 µM
- TGI (SR leukemia): > 100 µM
- TGI (UO-31 renal): > 100 µM
- TGI (OVCAR-5 ovarian): > 100 µM

SMILES: O=c1nc2sc3ccc4ccccc4c3n2[nH]c1=O
- TGI (IGROV1 ovarian): > 100 µM
- TGI (OVCAR-3 ovarian): > 100 µM
- TGI (RXF 393 renal): 38.1 µM
- TGI (DLD-1 colon): > 100 µM
- TGI (DMS 114 small cell lung): > 100 µM
- TGI (SNB-78 CNS): > 100 µM

SMILES: CCCCN=C1OCc2[nH][nH]c(=O)c21
- TGI (IGROV1 ovarian): > 100 µM
- TGI (CAKI-1 renal): > 100 µM
- TGI (RXF 393 renal): > 100 µM
- TGI (DLD-1 colon): > 100 µM
- TGI (SR leukemia): > 100 µM
- TGI (UO-31 renal): > 100 µM
- TGI (DMS 114 small cell lung): > 100 µM
- TGI (SNB-78 CNS): > 100 µM
- TGI (OVCAR-5 ovarian): > 100 µM
- TGI (RPMI-8226 leukemia): > 100 µM

SMILES: CCCOC1OC(CS(=O)(=O)O)C(O)C(O)C1O (stereo unspecified)
- TGI (IGROV1 ovarian): > 100 µM
- TGI (OVCAR-3 ovarian): > 100 µM
- TGI (CAKI-1 renal): > 100 µM
- TGI (RXF 393 renal): > 100 µM
- TGI (SR leukemia): > 100 µM
- TGI (UO-31 renal): > 100 µM
- TGI (OVCAR-5 ovarian): > 100 µM
- TGI (RPMI-8226 leukemia): > 100 µM
- TGI (MCF7 breast): > 100 µM

SMILES: COc1cc2c(c(OC(C)=O)c1OC(C)=O)-c1ccc(SC)c(=O)cc1C(NC(C)=O)CC2 (stereo unspecified)
- TGI (IGROV1 ovarian): > 100 µM
- TGI (OVCAR-3 ovarian): 2.43 µM
- TGI (CAKI-1 renal): > 100 µM
- TGI (RXF 393 renal): > 100 µM
- TGI (DLD-1 colon): > 100 µM
- TGI (SR leukemia): > 100 µM
- TGI (UO-31 renal): > 100 µM
- TGI (DMS 114 small cell lung): 6.11 µM
- TGI (SNB-78 CNS): > 100 µM
- TGI (OVCAR-5 ovarian): > 100 µM
- TGI (RPMI-8226 leukemia): > 100 µM

SMILES: [O-][n+]1c(-c2ccccc2)c2nc3ccccc3nc2c2ccccc21
- TGI (IGROV1 ovarian): > 100 µM
- TGI (OVCAR-3 ovarian): > 100 µM
- TGI (CAKI-1 renal): > 100 µM
- TGI (RXF 393 renal): > 100 µM
- TGI (DLD-1 colon): > 100 µM
- TGI (UO-31 renal): > 100 µM
- TGI (DMS 114 small cell lung): > 100 µM
- TGI (SNB-78 CNS): 92.4 µM
- TGI (OVCAR-5 ovarian): > 100 µM
- TGI (RPMI-8226 leukemia): > 100 µM

SMILES: N#CCCN(CCC#N)c1ccc(/C=C2\N=C(c3cc([N+](=O)[O-])ccc3Cl)N(NC(=O)CC(=O)Nc3ccccc3Cl)C2=O)cc1
- TGI (IGROV1 ovarian): > 100 µM
- TGI (OVCAR-3 ovarian): > 100 µM
- TGI (CAKI-1 renal): > 100 µM
- TGI (RXF 393 renal): > 100 µM
- TGI (DLD-1 colon): > 100 µM
- TGI (SR leukemia): > 100 µM
- TGI (UO-31 renal): > 100 µM
- TGI (DMS 114 small cell lung): > 100 µM
- TGI (SNB-78 CNS): > 100 µM
- TGI (OVCAR-5 ovarian): 66.5 µM
- TGI (RPMI-8226 leukemia): > 100 µM

SMILES: CCN(CC)CCNc1ccc2nnn3c4ccccc4c(=O)c1c23
- TGI (IGROV1 ovarian): 58.8 µM
- TGI (OVCAR-3 ovarian): 23.7 µM
- TGI (CAKI-1 renal): > 33.7 µM
- TGI (RXF 393 renal): 18.5 µM
- TGI (DLD-1 colon): 42.2 µM
- TGI (SR leukemia): 5.44 µM
- TGI (UO-31 renal): 29.3 µM
- TGI (DMS 114 small cell lung): 24.2 µM
- TGI (OVCAR-5 ovarian): 14.4 µM
- TGI (RPMI-8226 leukemia): > 24.2 µM

SMILES: CCOC(=O)NC(Nc1ccc(Cl)cn1)(C(F)(F)F)C(F)(F)F
- TGI (OVCAR-3 ovarian): > 100 µM
- TGI (RXF 393 renal): > 100 µM
- TGI (SR leukemia): > 100 µM
- TGI (UO-31 renal): > 100 µM
- TGI (OVCAR-5 ovarian): > 100 µM
- TGI (RPMI-8226 leukemia): > 100 µM
- TGI (MCF7 breast): > 100 µM

SMILES: CC(C)CN(CC#N)CC(C)C
- TGI (IGROV1 ovarian): > 100 µM
- TGI (OVCAR-3 ovarian): > 100 µM
- TGI (CAKI-1 renal): > 100 µM
- TGI (RXF 393 renal): > 100 µM
- TGI (UO-31 renal): > 100 µM
- TGI (OVCAR-5 ovarian): > 100 µM
- TGI (RPMI-8226 leukemia): > 100 µM
- TGI (MCF7 breast): > 100 µM

SMILES: O=C(O)Cn1c2c(c3c(O)cccc31)C(=O)c1ccccc1-2
- GI50 (IGROV1 ovarian): > 100 µM
- TGI (IGROV1 ovarian): > 100 µM
- GI50 (OVCAR-3 ovarian): > 100000 nM
- TGI (OVCAR-3 ovarian): > 100 µM
- GI50 (CAKI-1 renal): > 100000 nM
- TGI (CAKI-1 renal): > 100 µM
- GI50 (RXF 393 renal): > 100000 nM
- TGI (RXF 393 renal): > 100 µM
- GI50 (UO-31 renal): > 100000 nM
- TGI (UO-31 renal): > 100 µM
- GI50 (OVCAR-5 ovarian): > 100000 nM
- TGI (OVCAR-5 ovarian): > 100 µM
- GI50 (MCF7 breast): > 100 µM
- TGI (MCF7 breast): > 100 µM

SMILES: NC(N)=NC(N)=Nc1ccccc1 (tested in a mixture with another compound)
- TGI (IGROV1 ovarian): > 100 µM
- TGI (OVCAR-3 ovarian): > 100 µM
- TGI (CAKI-1 renal): > 100 µM
- TGI (RXF 393 renal): > 100 µM
- TGI (UO-31 renal): > 100 µM
- TGI (OVCAR-5 ovarian): > 100 µM
- TGI (MCF7 breast): > 100 µM

SMILES: C=CCc1cccc(/C=N\N=C(/N)NO)c1O
- TGI (IGROV1 ovarian): > 74.9 µM
- TGI (OVCAR-3 ovarian): > 25.2 µM
- TGI (CAKI-1 renal): 9.01 µM
- TGI (RXF 393 renal): 19.2 µM
- TGI (DLD-1 colon): > 100 µM
- TGI (UO-31 renal): 6.69 µM
- TGI (DMS 114 small cell lung): 12.9 µM
- TGI (SNB-78 CNS): > 88.1 µM
- TGI (OVCAR-5 ovarian): 64.3 µM
- TGI (RPMI-8226 leukemia): 14.6 µM
- TGI (MCF7 breast): 9.82 µM
